{"source": "patent US12350247B2", "about": "“Use of APE1/Ref-1 inhibitors for treatment of retinal diseases” (Indiana University Research and Technology Corporation, priority 2017, dated 2025)", "key": {"pancreatic tumor": {"system": "pancreatic tumor", "experiment": "Xenograft model, APX3330 with gemcitabine", "format": "in vivo", "conditions": "APX3330 (25 mg/kg) combined with gemcitabine (35 mg/kg)", "description": "The data in FIG. 14C is tumor volume at sacrifice. Combination therapy was well-tolerated."}, "10.05 cells": {"system": "10.05 cells", "experiment": "Intracellular pH assay (pHrodo Red AM) in hypoxic 10.05 cells", "format": "cell-based, human", "conditions": "0.2% O2 48 hrs; up to 50 μM APX3330, 100 μM SLC-0111; 8 APX2009, 5 μM APX2014", "description": "Therefore, the APX3330 analogs, APX2009 and APX2014, were used to determine whether APE1/Ref-1 redox inhibition alone can shift intracellular pH in hypoxic PDAC cells given a sufficiently potent inhibitor."}, "CAFs (CAF19 cells)": {"system": "CAFs (CAF19 cells)", "experiment": "3D spheroid co-culture, CAF signal (green channel)", "conditions": "for CC50: read-out: LC50, 3D Cultures, CAFs"}, "[1]": {"system": "Pa03C and Panc10.05 tumor cells", "experiment": "3D spheroid / co-culture model of pancreatic cancer (both patient lines)", "experimental": "Pa03C cells were plated into 3D cultures alone or with CAF19 cells.\nPa03C and Panc10.05 tumor cells were grown in 3D cultures in the presence of CAFs. Spheroids were treated with either single agents, vehicle (DMSO) or combination of targeted agents on days 4 and 8 (black arrows), and the intensity of tumor (red) and CAF (green) were quantified as described in Example 7 every 3-4 days in culture."}, "Panc10.05": {"system": "Panc10.05", "experiment": "3D tumor spheroid culture growth (fluorescence intensity)", "conditions": "read-out: LC50; 3D Cultures, Tumor Alone, Panc10.05, D12 curves"}, "[2]": {"system": "human carcinoma colon cell line HCT-116", "experiment": "Alamar blue cytotoxicity combination assay (CalcuSyn)", "format": "cell-based", "method": "HTC-116 (Yunhua Liu) was seeded in a 96-well tissue culture plate at 2000 cells/well in DMEM+10% FBS and grown overnight at 37° C., 5% CO2. Drug Media DMEM+5% FBS was added at dosages of APX3330 (Apexian) in a 5-point spread from 75 uM to 6.3 uM and spiked with CPI-613 (Apexbio Technology) at 75 uM, or 50 uM, or alone for single agent. Cells were incubated for 72 hours at 37° C., 5% CO2. Media was exchanged with DMEM+5% FBS+10% Alamar blue fluorescent cell viability indicator (INVITROGEN™) and incubated 4 hours at 37° C., 5% CO2 and then read on a fluorescent reader (SYNERGY™ H4 BioTek). […] depicts Chou-Talalay Index (CI) of dose combinations (CalcuSyn). FIG. 32E depicts synergistic drug combinations (CalcuSyn) of APX3330 spiked with 50 uM CPI-613 or 75 uM CPI-613. […] Data shown is the average of 3 separate cytotoxicity assays; each assay normalized to media only control.\nHTC-116 (Yunhua Liu) was seeded in a 96-well tissue culture plate at 2000 cells/well in DMEM+10% FBS and grown overnight at 37° C., 5% CO2. Drug Media DMEM+5% FBS was added at dosages of APX3330 (Apexian) from 100 uM to 0.4 uM in a 10-point spread and spiked with CPI-613 (Apexbio Technology) at 100 uM, or 75 uM, or alone for single agent. Cells were incubated for 72 hours at 37° C., 5% CO2. Media was exchanged with DMEM+5% FBS+10% Alamar blue fluorescent cell viability indicator (INVITROGEN™) and incubated 4 hours at 37° C., 5% CO2 and then read on a fluorescent reader (SYNERGY™ H4 BioTek). […] FIG. 33D depicts Chou-Talalay Index (CI) of dose combinations (CalcuSyn). FIG. 33E depicts synergistic drug combinations (CalcuSyn) of APX3330 spiked with 100 uM CPI-613 or 75 uM CPI-613. […] Data shown is the average of 3 separate cytotoxicity assays; each assay normalized to media only control.\nHTC-116 (Yunhua Liu) was seeded in a 96-well tissue culture plate at 2000 cells/well in DMEM+10% FBS and grown overnight at 37° C., 5% CO2. Drug Media DMEM+5% FBS was added at dosages of APX2014 (Apexian) in a 5-point spread from 25 uM to 1.6 uM and spiked with CPI-613 (Apexbio Technology) at 75 uM, or 50 uM, or alone for single agent. Cells were incubated for 72 hours at 37° C., 5% CO2. Media was exchanged with DMEM+5% FBS+10% Alamar blue fluorescent cell viability indicator (INVITROGEN™) and incubated 4 hours at 37° C., 5% CO2 and then read on a fluorescent reader (SYNERGY™ H4 BioTek). […] FIG. 34D depicts Chou-Talalay Index (CI) of dose combinations (CalcuSyn). FIG. 34E depicts synergistic drug combinations (CalcuSyn) of APX2014 spiked with 50 uM CPI-613 or 75 uM CPI-613. Drug combination synergy could not be ascertained at APX2014 dosages when spiked with 50 uM CPI-613. […] Data shown is the average of 3 separate cytotoxicity assays; each assay normalized to media only control.\nHTC-116 (Yunhua Liu) was seeded in a 96-well tissue culture plate at 2000 cells/well in DMEM+10% FBS and grown overnight at 37° C., 5% CO2. Drug Media DMEM+5% FBS was added at dosages of APX3330 (Apexian) from 100 uM to 0.4 uM in a 10-point spread and spiked with CB-839 (Sigma-Aldrich) at 1000 nM, or 500 nM, or alone for single agent. Cells were incubated for 72 hours at 37° C., 5% CO2. Media was exchanged with DMEM+5% FBS+10% Alamar blue fluorescent cell viability indicator (INVITROGEN™) and incubated 4 hours at 37° C., 5% CO2 and then read on a fluorescent reader (SYNERGY™ H4 BioTek). FIG. 35A depicts APX3330 and CB-839 single agent effects. FIG. 35B depicts APX3330 and CB-839 synergistic combo effects. […] FIG. 35E depicts synergistic drug combinations (CalcuSyn) of APX3330 spiked with 1000 nM CB-839 or 500 nM CB-839 (5-pt only). […] Data shown is the average of 3 separate cytotoxicity assays; each assay normalized to media only control."}, "[3]": {"system": "mouse C26 colon cancer cells", "experiment": "Colon cancer orthotopic tumors, oxaliplatin with APX3330", "format": "in vivo, mice", "method": "Immune competent mice were injected with mouse C26 colon cancer cells in the caecum (FIG. 29A). Animals were treated with either oxaliplatin or oxaliplatin with APX3330 and tumor size determined compared to vehicle controls (FIG. 29B)."}, "murine KPC cells": {"system": "murine KPC cells", "experiment": "Alamar blue proliferation-based assay", "format": "cell-based", "conditions": "3 days incubation"}}, "note": "Like-named read-outs stand apart in the source and are kept apart here."}
{"molecule": "CCCCCCCCC/C(=C\\C1=C(C)C(=O)C(OC)=C(OC)C1=O)C(=O)O", "note": "[APX3330]", "values": [{"measurement": "tolerability of combination therapy", "setting": "pancreatic tumor", "result": "well-tolerated"}, {"measurement": "tumor volume at sacrifice vs single agents alone", "setting": "pancreatic tumor", "result": "significantly decreased tumor volume"}, {"measurement": "effect on intracellular pH as single agent", "setting": "10.05 cells", "result": "did not affect"}, {"measurement": "area of the CAFs", "setting": "CAFs (CAF19 cells); APX3330 alone, co-culture with Pa03C", "result": "reduction in the area of the CAFs"}, {"measurement": "CC50", "setting": "CAFs (CAF19 cells); co-culture with Pa03C, D12 curves", "result": 57.3, "unit": "µM"}, {"measurement": "CC50", "setting": "CAFs (CAF19 cells); co-culture with Panc10.05, D12 curves", "result": 59.4, "unit": "µM"}, {"measurement": "tumor cell growth in combination with SLC-0111", "setting": "[1]; 3D co-cultures with CAFs, APX3330 at 50 μM, APX2009 at 10 μM, APX2014 at 0.6 μM", "result": "significantly attenuated tumor cell growth"}, {"measurement": "tumor killing in combination with napabucasin", "setting": "[1]; 3D spheroid model (tumor and CAF)", "result": "synergistic tumor killing effect"}, {"measurement": "single agent efficacy on 3D spheroid growth", "setting": "[1]; treated on days 4 and 8, FIG. 17", "result": "reduced cell growth, cell proliferation"}, {"measurement": "CC50", "setting": "Panc10.05", "result": 44.5, "unit": "µM"}, {"measurement": "drug combination synergy (Chou-Talalay, CalcuSyn)", "setting": "[2]; APX3330 75 uM and 50 uM spiked with 50 uM CPI-613, 5-point spread", "result": "synergy was observed"}, {"measurement": "drug combination synergy (Chou-Talalay, CalcuSyn)", "setting": "[2]; APX3330 100 uM-12.5 uM spiked with 75 uM CPI-613, 10-point spread", "result": "Synergy was observed"}, {"measurement": "drug combination synergy (Chou-Talalay, CalcuSyn)", "setting": "[2]; APX3330 100 uM-25 uM spiked with 1000 nM CB-839", "result": "synergy was observed"}, {"measurement": "drug combination synergy (Chou-Talalay, CalcuSyn)", "setting": "[2]; APX3330 100 uM-50 uM spiked with 500 nM CB-839", "result": "Synergy was observed"}, {"measurement": "drug combination synergy (Chou-Talalay, CalcuSyn)", "setting": "[2]; all APX3330 dosages (100 uM to 0.4 uM) spiked with 100 uM CPI-613, 10-point spread", "result": "synergy was observed"}, {"measurement": "drug combination synergy (Chou-Talalay, CalcuSyn)", "setting": "[2]; all but one APX3330 dosage (6.3 uM), spiked with 75 uM CPI-613, 5-point spread", "result": "Synergy was observed"}, {"measurement": "oxaliplatin induced loss of myenteric neurons in the colon", "setting": "[3]; CRC mice", "result": "alleviated oxaliplatin induced loss of myenteric neurons"}, {"measurement": "tumor cell killing vs oxaliplatin alone", "setting": "[3]; oxaliplatin with APX3330", "result": "dramatic and significantly increased tumor cell killing"}, {"measurement": "cytotoxicity in combination with Napabucasin", "setting": "murine KPC cells", "result": "enhancement of Napa-induced cytotoxicity"}]}
